# System: Mycobacterium smegmatis (ATCC 7000084)
# Experiment: Serial dilution assay (MIC), M. smegmatis
# Format: cell-based
# Settings: Mycolicibacterium smegmatis, ATCC7000084; growth inhibition at 24 h; read-out: minimum inhibitory concentration (MIC) against M. smegmatis
# Experimental: Serial dilutions of compounds were prepared as triplicates in sterile U-bottom-shaped 96-well plates (Corning, USA). Mueller-Hinton broth (MHB) medium was used for bacteria, and YMG medium was used for filamentous fungi and yeasts. The selected organisms represent a broad spectrum of pathogens of clinical interest, as well as sensitive indicator strains (Gram-positive bacteria: Bacillus subtilis (DSM 10), Staphylococcus aureus (DSM 346), Mycobacterium smegmatis (ATCC 7000084); Gram-negative bacteria: Acinetobacter baumannii (DSM 30008), Chromobacterium violaceum (DSM 30191), Escherichia coli (DSM 1116), Pseudomonas aeruginosa (PA 14); fungi and yeast: Schizosaccharomyces pombe (DSM 70572), Pichia anomala (DSM 6766), Mucor hiemalis (DSM 2656), Candida albicans (DSM 1665), Rhodotorula glutinis (DSM 10134)).
# The compounds were dissolved in MeOH (1 mg/mL), added to the bacterial suspension, and diluted to the final concentrations. The plate was incubated at 37 °C under static conditions. Growth inhibition was assessed at 24 h. MeOH was used as negative control. […]
smiles,measurement,value
"C=C1[C@@H](C)[C@H]2[C@H](Cc3ccccc3)NC(=O)[C@]23OC(=O)/C=C/[C@H](O)CCC[C@@H](C)C/C=C/[C@H]3[C@@H]1OC(C)=O [Compound 3, 7-O-acetyl cytochalasin B]",MIC,66.6 mg/L

# From publication PMC11519904, “Comprehensive Cell Biological Investigation of Cytochalasin B Derivatives with Distinct Activities on the Actin Network” (Journal of Natural Products, 2024)
